Laboratory results: patent publication US12448389B2, “BRM targeting compounds and associated methods of use” (Prelude Therapeutics Incorporated, priority 2020, dated 2025)

Tests used:
SMARCA2-HiBiT = target: T1, SMARCA2-HiBiT (Homo sapiens, UniProt P51531); assay: SMARCA2 HiBiT degradation assay in HeLa cells; type: cell-based; conditions: 18 hours incubation; for DC50: read-out: HeLa_HiBit-SM2 DC50; for Dmax: HeLa, read-out: HeLa-HiBit-SM2 Dmax (%)
T1 construct: SMARCA2-HiBiT knock-in Hela monoclonal cell (CS302366); host or cells: HeLa monoclonal knock-in line (CRISPR HiBiT knock-in at the endogenous locus, heterozygous)
T1 sequence (P51531 whole entry): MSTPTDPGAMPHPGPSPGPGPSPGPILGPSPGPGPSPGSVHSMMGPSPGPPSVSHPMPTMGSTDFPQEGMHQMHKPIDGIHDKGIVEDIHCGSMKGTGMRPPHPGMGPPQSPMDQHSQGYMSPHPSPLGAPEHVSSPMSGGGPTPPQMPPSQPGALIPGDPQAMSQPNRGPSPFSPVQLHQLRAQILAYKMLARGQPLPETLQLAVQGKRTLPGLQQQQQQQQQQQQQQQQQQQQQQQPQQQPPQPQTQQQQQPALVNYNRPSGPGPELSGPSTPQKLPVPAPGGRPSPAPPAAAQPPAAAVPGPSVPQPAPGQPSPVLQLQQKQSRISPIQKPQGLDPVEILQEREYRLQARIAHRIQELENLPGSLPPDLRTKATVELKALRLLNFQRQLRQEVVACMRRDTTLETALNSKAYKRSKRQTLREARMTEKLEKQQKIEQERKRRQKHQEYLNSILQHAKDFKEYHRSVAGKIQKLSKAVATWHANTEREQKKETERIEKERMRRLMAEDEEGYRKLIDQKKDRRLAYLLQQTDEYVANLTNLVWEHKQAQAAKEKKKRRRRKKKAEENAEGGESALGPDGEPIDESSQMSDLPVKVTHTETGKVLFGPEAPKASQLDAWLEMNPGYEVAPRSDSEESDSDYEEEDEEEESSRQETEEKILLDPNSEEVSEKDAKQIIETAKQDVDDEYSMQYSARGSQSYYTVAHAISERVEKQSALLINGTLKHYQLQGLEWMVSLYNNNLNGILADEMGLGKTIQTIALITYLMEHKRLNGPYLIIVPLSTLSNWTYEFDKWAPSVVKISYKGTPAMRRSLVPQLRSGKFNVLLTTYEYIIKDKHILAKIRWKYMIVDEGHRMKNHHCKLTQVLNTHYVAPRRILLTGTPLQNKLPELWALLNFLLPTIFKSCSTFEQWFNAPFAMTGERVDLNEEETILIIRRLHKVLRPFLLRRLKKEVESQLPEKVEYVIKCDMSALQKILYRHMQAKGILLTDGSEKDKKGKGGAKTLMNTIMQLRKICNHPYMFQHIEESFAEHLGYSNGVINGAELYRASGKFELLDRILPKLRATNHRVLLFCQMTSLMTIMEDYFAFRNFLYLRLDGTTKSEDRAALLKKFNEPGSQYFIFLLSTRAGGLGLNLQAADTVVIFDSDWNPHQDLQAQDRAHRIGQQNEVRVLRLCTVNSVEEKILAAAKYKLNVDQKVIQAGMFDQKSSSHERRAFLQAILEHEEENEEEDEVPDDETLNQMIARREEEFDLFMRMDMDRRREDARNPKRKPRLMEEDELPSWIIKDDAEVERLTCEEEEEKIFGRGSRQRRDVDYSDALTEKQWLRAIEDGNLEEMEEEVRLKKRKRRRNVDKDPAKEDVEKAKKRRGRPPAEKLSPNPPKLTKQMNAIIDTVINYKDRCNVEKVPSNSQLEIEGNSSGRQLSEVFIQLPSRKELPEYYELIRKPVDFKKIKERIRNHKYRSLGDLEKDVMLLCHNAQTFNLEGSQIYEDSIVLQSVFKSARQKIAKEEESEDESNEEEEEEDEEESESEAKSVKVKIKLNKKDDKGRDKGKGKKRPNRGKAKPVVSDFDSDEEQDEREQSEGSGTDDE
How it was run: (§1)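 HeLa monoclonal lines with heterozygous HiBiT knock-in were seeded at 2500 cells/well in EMEM with 10% FBS and treated with compound for 18 h at 37 °C. Remaining tagged protein was measured by Nano-Glo HiBiT lytic luminescence after 30–60 min at RT, and values came from curve fitting.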

SMARCA4-HiBiT = target: T2, SMARCA4-HiBiT (Homo sapiens, UniProt P51532); assay: SMARCA4 HiBiT degradation assay in HeLa cells; type: cell-based; conditions: 18 hours incubation; for DC50: read-out: HeLa-HiBit-SM4 DC50; for Dmax: HeLa, read-out: HeLa-HiBit-SM4 Dmax (%)
T2 construct: SMARCA4-HiBiT knock-in Hela monoclonal cell (CS3023226); host or cells: HeLa monoclonal knock-in line (CRISPR HiBiT knock-in at the endogenous locus, heterozygous)
T2 sequence (P51532 whole entry): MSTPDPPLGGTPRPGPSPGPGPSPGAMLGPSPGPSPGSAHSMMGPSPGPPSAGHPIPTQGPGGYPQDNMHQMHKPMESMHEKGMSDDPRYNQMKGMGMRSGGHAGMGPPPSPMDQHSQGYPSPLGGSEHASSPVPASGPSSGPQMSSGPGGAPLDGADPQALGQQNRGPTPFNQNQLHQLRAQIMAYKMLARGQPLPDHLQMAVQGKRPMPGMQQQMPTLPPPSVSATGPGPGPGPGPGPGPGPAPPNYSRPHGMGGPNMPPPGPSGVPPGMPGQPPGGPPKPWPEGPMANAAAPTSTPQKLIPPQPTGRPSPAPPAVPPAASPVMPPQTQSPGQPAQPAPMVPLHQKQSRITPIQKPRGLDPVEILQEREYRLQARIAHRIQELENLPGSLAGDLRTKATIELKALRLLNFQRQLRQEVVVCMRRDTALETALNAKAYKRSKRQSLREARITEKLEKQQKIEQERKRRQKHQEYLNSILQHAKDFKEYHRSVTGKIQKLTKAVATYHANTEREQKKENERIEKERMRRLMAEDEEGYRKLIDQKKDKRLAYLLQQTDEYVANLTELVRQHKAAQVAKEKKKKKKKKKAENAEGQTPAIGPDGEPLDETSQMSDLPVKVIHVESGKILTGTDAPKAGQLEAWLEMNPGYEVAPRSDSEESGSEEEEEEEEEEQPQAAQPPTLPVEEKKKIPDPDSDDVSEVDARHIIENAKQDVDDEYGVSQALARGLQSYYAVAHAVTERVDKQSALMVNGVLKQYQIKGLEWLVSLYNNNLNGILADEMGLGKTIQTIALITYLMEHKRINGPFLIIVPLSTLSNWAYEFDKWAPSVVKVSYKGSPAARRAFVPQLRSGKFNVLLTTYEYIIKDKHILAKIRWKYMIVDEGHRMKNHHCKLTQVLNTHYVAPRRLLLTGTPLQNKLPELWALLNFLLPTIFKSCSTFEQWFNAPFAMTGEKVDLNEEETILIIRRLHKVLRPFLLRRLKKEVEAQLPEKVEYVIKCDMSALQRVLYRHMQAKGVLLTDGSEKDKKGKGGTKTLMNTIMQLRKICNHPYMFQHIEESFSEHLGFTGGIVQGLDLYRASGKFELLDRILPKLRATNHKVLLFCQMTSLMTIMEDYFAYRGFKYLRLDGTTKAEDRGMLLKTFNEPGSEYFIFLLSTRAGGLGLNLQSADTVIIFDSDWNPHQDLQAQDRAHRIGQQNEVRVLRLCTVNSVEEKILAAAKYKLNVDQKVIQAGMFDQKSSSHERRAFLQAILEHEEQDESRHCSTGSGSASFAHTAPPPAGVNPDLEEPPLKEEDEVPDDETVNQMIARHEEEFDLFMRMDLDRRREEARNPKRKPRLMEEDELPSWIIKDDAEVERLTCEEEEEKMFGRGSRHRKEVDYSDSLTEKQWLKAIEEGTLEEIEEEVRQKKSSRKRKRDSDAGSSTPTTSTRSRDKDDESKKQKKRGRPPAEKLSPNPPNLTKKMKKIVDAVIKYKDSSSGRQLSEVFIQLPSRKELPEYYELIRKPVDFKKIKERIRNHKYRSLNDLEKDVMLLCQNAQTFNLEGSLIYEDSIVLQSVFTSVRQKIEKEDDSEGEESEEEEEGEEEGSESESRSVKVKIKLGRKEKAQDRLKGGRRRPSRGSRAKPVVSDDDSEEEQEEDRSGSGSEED
How it was run: as §1

| Compound | DC50 (SMARCA2-HiBiT) | Dmax (SMARCA2-HiBiT) | DC50 (SMARCA4-HiBiT) | Dmax (SMARCA4-HiBiT) | HeLa-HiBit-SM2 Dmax (%) (SMARCA2-HiBiT) | HeLa-HiBit-SM4 Dmax (%) (SMARCA4-HiBiT) |
| --- | --- | --- | --- | --- | --- | --- |
| O=C1CCC(N2Cc3cc(N4CCC(CN5C[C@@H]6[C@H](C5)[C@H]6CN5CCN6c7cc(-c8ccccc8O)nnc7NC[C@H]6C5)CC4)ccc3C2=O)C(=O)N1 (stereo partly drawn) [Example 92, 3-(5-(4-(((1R,5S,6r)-6-(((S)-2-(2-hydroxyphenyl)-5,6,6a,7,9,10-hexahydro-8H-pyrazino[1′,2′:4,5]pyrazino[2,3-c]pyridazin-8-yl)methyl)-3-azabicyclo[3.1.0]hexan-3-yl)methyl)piperidin-1-yl)-1-oxoisoindolin-2-yl)piperidine-2,6-dione] | < 10 nM | > 85% | < 10 nM | 75 to 85% | – | – |
| O=C1CCC(N2C(=O)c3cc(F)c(N4CCC(CN5CC6CCC(C5)C6CN5CCN6c7cc(-c8ccccc8O)nnc7NC[C@H]6C5)CC4)cc3C2=O)C(=O)N1 (stereo partly drawn) [Example 169, 2-(2,6-dioxopiperidin-3-yl)-5-fluoro-6-[4-[[8-[[(10S)-4-(2-hydroxyphenyl)-1,5,6,8,12-pentazatricyclo[8.4.0.02,7]tetradeca-2,4,6-trien-12-yl]methyl]-3-azabicyclo[3.2.1]octan-3-yl]methyl]piperidin-1-yl]isoindole-1,3-dione] | < 10 nM | 75 to 85% | 10 to 100 nM | 75 to 85% | – | – |
| O=C1CCC(N2C(=O)c3ccc(N4CCCC(CN5CCO[C@@H](CN6CCN7c8cc(-c9ccccc9O)nnc8NC[C@H]7C6)C5)C4)cc3C2=O)C(=O)N1 (stereo partly drawn) [Example 79, 2-(2,6-dioxopiperidin-3-yl)-5-(3-(((S)-2-(((S)-2-(2-hydroxyphenyl)-5,6,6a,7,9,10-hexahydro-8H-pyrazino[1′,2′:4,5]pyrazino[2,3-c]pyridazin-8-yl)methyl)morpholino)methyl)piperidin-1-yl)isoindoline-1,3-dione] | < 10 nM | 75 to 85% | < 10 nM | 75 to 85% | – | – |
| O=C1CCC(N2C(=O)c3ccc(N4CCC(CN5C6COCC5CC(CN5CCN7c8cc(-c9ccccc9O)nnc8NC[C@H]7C5)C6)CC4)cc3C2=O)C(=O)N1 (stereo partly drawn) [Example 133, 2-(2,6-dioxopiperidin-3-yl)-5-(4-((7-(((S)-2-(2-hydroxyphenyl)-5,6,6a,7,9,10-hexahydro-8H-pyrazino[1′,2′:4,5]pyrazino[2,3-c]pyridazin-8-yl)methyl)-3-oxa-9-azabicyclo[3.3.1]nonan-9-yl)methyl)piperidin-1-yl)isoindoline-1,3-dione] | < 10 nM | 50 to 75% | < 10 nM | 50 to 75% | – | – |
| O=C1CCC(N2C(=O)c3ccc(N4CCN(CCN5CCC(N6CCN7c8cc(-c9ccccc9O)nnc8NC[C@H]7C6)CC5)CC4)cc3C2=O)C(=O)N1 (stereo partly drawn) [Example 155, 2-(2,6-dioxopiperidin-3-yl)-5-(4-(2-(4-((S)-2-(2-hydroxyphenyl)-5,6,6a,7,9,10-hexahydro-8H-pyrazino[1′,2′:4,5]pyrazino[2,3-c]pyridazin-8-yl)piperidin-1-yl)ethyl)piperazin-1-yl)isoindoline-1,3-dione] | < 10 nM | > 85% | < 10 nM | > 85% | – | – |
| O=C1CCC(N2C(=O)c3ccc(N4CCC(N[C@H]5C[C@@H](CN6CCN7c8cc(-c9ccccc9O)nnc8NC[C@H]7C6)C5)CC4)cc3C2=O)C(=O)N1 (stereo partly drawn) [Example 76, 2-(2,6-dioxopiperidin-3-yl)-5-(4-(((1R,3s)-3-(((S)-2-(2-hydroxyphenyl)-5,6,6a,7,9,10-hexahydro-8H-pyrazino[1′,2′:4,5]pyrazino[2,3-c]pyridazin-8-yl)methyl)cyclobutyl)amino)piperidin-1-yl)isoindoline-1,3-dione] | < 10 nM | > 85% | < 10 nM | > 85% | – | – |
| CC(C)(C)C(=O)OCN1C(=O)CCC(N2C(=O)c3cccc(N4CCC(N5CCC(N6CCN7c8cc(-c9ccccc9O)nnc8NC[C@H]7C6)CC5)CC4)c3C2=O)C1=O (stereo partly drawn) [Example 123, (3-(4-(4-((S)-2-(2-hydroxyphenyl)-5,6,6a,7,9,10-hexahydro-811-pyrazino [1′,2′:4,5]pyrazino[2,3-c]pyridazin-8-yl)-[1,4′-bipiperidin]-1′-yl)-1,3-dioxoisoindolin-2-yl)-2,6-dioxopiperidin-1-yl)methyl pivalate] | < 10 nM | 75 to 85% | < 10 nM | 75 to 85% | – | – |

Continued, values first:

| DC50 (SMARCA2-HiBiT) | Dmax (SMARCA2-HiBiT) | DC50 (SMARCA4-HiBiT) | Dmax (SMARCA4-HiBiT) | HeLa-HiBit-SM2 Dmax (%) (SMARCA2-HiBiT) | HeLa-HiBit-SM4 Dmax (%) (SMARCA4-HiBiT) | Compound |
| --- | --- | --- | --- | --- | --- | --- |
| < 10 nM | – | < 10 nM | – | – | – | CCC1CN(CC2CCN(c3ccc4c(c3)C(=O)N(C3CCC(=O)NC3=O)C4)CC2)CCN1C(=O)N1CCN2c3cc(-c4ccccc4O)nnc3NC[C@H]2C1 (stereo partly drawn) [Example 271, 3-(6-(4-((3-ethyl-4-((S)-2-(2-hydroxyphenyl)-6,6a,7,8,9,10-hexahydro-5H-pyrazino[1′,2′:4,5]pyrazino[2,3-c]pyridazine-8-carbonyl)piperazin-1-yl)methyl)piperidin-1-yl)-1-oxoisoindolin-2-yl)piperidine-2,6-dione] |
| < 10 nM | > 85% | < 10 nM | > 85% | – | – | CC(CN1CCN2c3cc(-c4ccccc4O)nnc3NC[C@H]2C1)C1CCN(CC2CCN(c3ccc4c(c3)C(=O)N(C3CCC(=O)NC3=O)C4=O)CC2)CC1 (stereo partly drawn) [Example 249, 2-(2,6-dioxopiperidin-3-yl)-5-(4-((4-(1-((S)-2-(2-hydroxyphenyl)-5,6,6a,7,9,10-hexahydro-8H-pyrazino[1′,2′:4,5]pyrazino[2,3-c]pyridazin-8-yl)propan-2-yl)piperidin-1-yl)methyl)piperidin-1-yl)isoindoline-1,3-dione] |
| < 10 nM | > 85% | < 10 nM | 75 to 85% | – | – | CC1(CN2CCC(CN3CCN4c5cc(-c6ccccc6O)nnc5NC[C@H]4C3)CC2)CCN(c2ccc3c(c2)C(=O)N(C2CCC(=O)NC2=O)C3=O)CC1 (stereo partly drawn) [Example 226, 2-(2,6-dioxopiperidin-3-yl)-5-(4-((4-(((S)-2-(2-hydroxyphenyl)-5,6,6a,7,9,10-hexahydro-8H-pyrazino[1′,2′:4,5]pyrazino[2,3-c]pyridazin-8-yl)methyl)piperidin-1-yl)methyl)-4-methylpiperidin-1-yl)isoindoline-1,3-dione] |
| < 10 nM | > 85% | 10 to 100 nM | 50 to 75% | – | – | C[C@@H]1C[C@H](CN2C[C@@H]3[C@H](C2)[C@H]3CN2CCN3c4cc(-c5ccccc5O)nnc4NC[C@H]3C2)CCN1c1cc2c(cc1F)C(=O)N(C1CCC(=O)NC1=O)C2=O (some centres unmarked) [Example 176] |
| < 10 nM | – | < 10 nM | – | A (A=Dmax>85%) | C (C=50%<Dmax<=75%) | CC1CN(c2ccc3c(c2)C(=O)N(C2CCC(=O)NC2=O)C3=O)CCC1CN1C[C@@H]2[C@H](C1)[C@H]2CN1CCN2c3cc(-c4ccccc4O)nnc3NC[C@H]2C1 (stereo partly drawn) [Example 198, 2-(2,6-dioxopiperidin-3-yl)-5-(4-(((1R,5S,6r)-6-(((S)-2-(2-hydroxyphenyl)-5,6,6a,7,9,10-hexahydro-8H-pyrazino[1′,2′:4,5]pyrazino[2,3-c]pyridazin-8-yl)methyl)-3-azabicyclo[3.1.0]hexan-3-yl)methyl)-3-methylpiperidin-1-yl)isoindoline-1,3-dione] |
| < 10 nM | > 85% | < 10 nM | > 85% | – | – | O=C1CCC(N2C(=O)c3ccc(N4CCC(CN5CCC6C(C5)C6CN5CCN6c7cc(-c8ccccc8O)nnc7NC[C@H]6C5)CC4)cc3C2=O)C(=O)N1 (stereo partly drawn) [Example 46, 2-(2,6-dioxopiperidin-3-yl)-5-(4-((7-(((S)-2-(2-hydroxyphenyl)-5,6,6a,7,9,10-hexahydro-8H-pyrazino[1′,2′:4,5]pyrazino[2,3-c]pyridazin-8-yl)methyl)-3-azabicyclo[4.1,0]heptan-3-yl)methyl)piperidin-1-yl)isoindoline-1,3-dione] |
| < 10 nM | 50 to 75% | 10 to 100 nM | 50 to 75% | – | – | O=C1CCC(N2Cc3ccc(N4CCOC(CN5CCN(C(=O)N6CCN7c8cc(-c9ccccc9O)nnc8NC[C@H]7C6)CC5)C4)cc3C2=O)C(=O)N1 (stereo partly drawn) [Example 111, 3-(6-(2-((4-((S)-2-(2-hydroxyphenyl)-6,6a,7,8,9,10-hexahydro-5H-pyrazino[1′,2′:4,5]pyrazino[2,3-c]pyridazine-8-carbonyl)piperazin-1-yl)methyl)morpholino)-1-oxoisoindolin-2-yl)piperidine-2,6-dione] |
| < 10 nM | > 85% | < 10 nM | 75 to 85% | – | – | O=C1CCC(N2C(=O)c3ccc(N4CCC(F)(CN5CCC(CN6CCN7c8cc(-c9ccccc9O)nnc8NC[C@H]7C6)CC5)CC4)cc3C2=O)C(=O)N1 (stereo partly drawn) [Example 48, 2-(2,6-dioxopiperidin-3-yl)-5-(4-fluoro-4-((4-(((S)-2-(2-hydroxyphenyl)-5,6,6a,7,9,10-hexahydro-8H-pyrazino[1′,2′:4,5]pyrazino[2,3-c]pyridazin-8-yl)methyl)piperidin-1-yl)methyl)piperidin-1-yl)isoindoline-1,3-dione] |
| < 10 nM | > 85% | < 10 nM | > 85% | – | – | O=C1CCC(N2Cc3ccc(N4CCN(CCN5CCC(CN6CCN7c8cc(-c9ccccc9O)nnc8NC[C@H]7C6)CC5)CC4)cc3C2=O)C(=O)N1 (stereo partly drawn) [Example 119, 3-(6-(4-(2-(4-(((S)-2-(2-hydroxyphenyl)-5,6,6a,7,9,10-hexahydro-8H-pyrazino[1′,2′:4,5]pyrazino[2,3-c]pyridazin-8-yl)methyl)piperidin-1-yl)ethyl)piperazin-1-yl)-1-oxoisoindolin-2-yl)piperidine-2,6-dione] |
